{
  "source": "paper PMC6941756",
  "about": "(Biochemistry, 2019)",
  "target": "HIV-1 protease KY variant (Human immunodeficiency virus 1, UniProt P12497, L577V/L578M/Q495K, form not given)",
  "data": [
    {"smiles": "CC(C)CN(C[C@@H](O)[C@H](Cc1ccccc1)NC(=O)O[C@H]1CO[C@H]2OCC[C@H]21)S(=O)(=O)c1ccc(N)cc1", "note": "[DRV, darunavir]", "values": [
      {"measurement": "times more tightly bound than expected under additivity of binding free energies", "setting": "KY variant protease", "value": "about 3.5 times"},
      {"measurement": "increase in Ki compared with the NL4–3 WT protease", "setting": "all of the KY variants vs NL4–3 WT", "value": "≥ 500", "unit": "fold"}
    ]}
  ]
}
